Data as given in patent US8211929B2, “Pyrimidine derivatives as kinase modulators and method of use” (Exelixis, Inc., priority 2004, dated 2012).

Assays:
IGF 3P = molecular target: T1, IGF 3P (Homo sapiens, UniProt P08069); assay: IGF1R kinase assay (LCCA), IGF 3P; type: biochemical; conditions: IGF1R kinase LCCA assay
T1 construct: human IGF1R kinase domain residues M954-C1367; made in house; host or cells: baculovirus expression (insect cells)
Experimental: (§1) Kinase activity and compound inhibition are investigated using one or more of the three assay formats described below. The ATP concentrations for each assay are selected to be close to the Michaelis-Menten constant (KM) for each individual kinase. Dose-response experiments are performed at 10 different inhibitor concentrations in a 384-well plate format. […] Y=Min+(Max−Min)/(1+(X/IC50)^H) Equation (2)
(§2) IGF1R kinase biochemical activity was assessed using a Luciferase-Coupled Chemiluminescent Kinase assay (LCCA) format. Kinase activity was measured as the percent ATP remaining following the kinase reaction. Remaining ATP was detected by luciferase-luciferin-coupled chemiluminescence. Specifically, the reaction was initiated by mixing test compounds, 3 μM ATP, 4 μM poly EY peptide and 4 nM IGF1R (baculovirus expressed human IGF1R kinase domain residues M954-C1367) in a 20 uL assay buffer (20 mM Tris-HCL pH7.5, 10 mM MgCl2, 0.02% Triton X-100, 1 mM DTT, 2 mM MnCl2). The mixture is incubated at ambient temperature for 2 hours after which 20 uL luciferase-luciferin mix is added and the chemiluminescent signal read using a Wallac Victor^2 reader.

[1] = molecular target: T2, (Homo sapiens, UniProt P08069); assay: IGF1R kinase assay (LCCA), IGF 0P; type: biochemical; conditions: IGF1R kinase LCCA assay
T2 construct: human IGF1R kinase domain residues M954-C1367; made in house; host or cells: baculovirus expression (insect cells)
T2 sequence (P08069 954-1367): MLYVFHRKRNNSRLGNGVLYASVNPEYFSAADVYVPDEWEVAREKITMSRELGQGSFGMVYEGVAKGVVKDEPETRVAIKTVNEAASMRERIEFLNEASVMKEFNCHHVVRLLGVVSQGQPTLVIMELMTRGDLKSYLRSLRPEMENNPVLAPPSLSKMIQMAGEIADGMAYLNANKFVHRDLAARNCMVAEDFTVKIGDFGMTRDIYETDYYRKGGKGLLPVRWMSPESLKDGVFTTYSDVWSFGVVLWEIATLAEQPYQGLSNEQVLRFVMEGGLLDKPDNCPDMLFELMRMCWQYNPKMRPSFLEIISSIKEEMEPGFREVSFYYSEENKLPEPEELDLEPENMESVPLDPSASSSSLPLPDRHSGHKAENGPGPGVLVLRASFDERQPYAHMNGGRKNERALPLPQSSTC
Experimental: as §1, §2

T1 sequence (P08069 954-1367): as above

Row | SMILES | IC50 (IGF 3P) | IC50 [1]
1 | Brc1cnc(NCC2CCCO2)nc1Nc1cc(C2CC2)n[nH]1 (stereo not drawn) [Example 201] | 0.5 to 5 µM | > 5 µM
2 | COc1cc(Nc2nccc(Nc3cc(C4CC4)n[nH]3)n2)cc(OC)c1 [Example 203] | 0.5 to 5 µM | 0.5 to 5 µM
3 | CN(Cc1ccccc1Cl)c1ncc(Br)c(Nc2cc(C3CC3)[nH]n2)n1 [Example 204] | 0.5 to 5 µM | 0.5 to 5 µM
4 | Clc1cccc(Nc2nc(Nc3ccccc3Cl)ncc2Br)c1 [Example 205] | 0.5 to 5 µM | 0.5 to 5 µM
5 | COc1ccccc1CNc1nc(C)cc(Nc2cc(C3CC3)[nH]n2)n1 [Example 207] | 0.5 to 5 µM | 0.5 to 5 µM
6 | Clc1ccccc1Nc1nc(Nc2cc(C3CC3)n[nH]2)c2nc[nH]c2n1 [Example 210] | 0.5 to 5 µM | 0.05 to 0.5 µM
7 | Cc1cc(Nc2cc(C3CC3)n[nH]2)nc(Nc2ccc(N(C)C)cc2)n1 [Example 213] | 0.5 to 5 µM | 0.5 to 5 µM
8 | Brc1cnc(NC2CCNCC2)nc1Nc1cc(C2CC2)[nH]n1 [Example 214] | 0.5 to 5 µM | > 5 µM
9 | Cc1cc(Nc2nc(Nc3ccc(N4CCOCC4)cc3)ncc2Br)n(C)n1 [Example 215] | 0.5 to 5 µM | > 5 µM
10 | Brc1cnc(NCc2csc(-c3cccs3)n2)nc1Nc1cc(C2CC2)[nH]n1 [Example 218] | 0.5 to 5 µM | 0.5 to 5 µM
11 | Nc1cnc(Nc2ccccc2Cl)nc1Nc1cc(C2CC2)n[nH]1 [Example 220] | 0.5 to 5 µM | 0.05 to 0.5 µM
12 | CCN(CC)CCNC(=O)c1cc2ccc(Nc3nc(C)cc(Nc4cc(C5CC5)n[nH]4)n3)cc2s1 [Example 221] | 0.5 to 5 µM | 0.5 to 5 µM
13 | Clc1ccccc1Nc1ncc(Br)c(Nc2ccccc2Cl)n1 [Example 222] | 0.5 to 5 µM | 0.5 to 5 µM
14 | CN(c1ccccc1)c1ncc(Br)c(Nc2cc(C3CC3)[nH]n2)n1 [Example 223] | 0.5 to 5 µM | 0.05 to 0.5 µM
15 | c1cc(Nc2cc(C3CC3)n[nH]2)nc(Nc2ccc(N3CCOCC3)cc2)n1 [Example 224] | 0.5 to 5 µM | 0.5 to 5 µM
16 | Clc1cccc(CCNc2ncc(Br)c(Nc3cc(C4CC4)n[nH]3)n2)c1 [Example 226] | 0.5 to 5 µM | > 5 µM
17 | CC(=O)Nc1ccc(Cl)c(Nc2nccc(Nc3cc(C4CC4)[nH]n3)n2)c1 [Example 227] | 0.5 to 5 µM | 0.5 to 5 µM
18 | O=C(NCCN1CCOCC1)c1nc(Nc2ccccc2Cl)nc(Nc2cc(C3CC3)n[nH]2)c1[N+](=O)[O-] [Example 228] | 0.5 to 5 µM | 0.5 to 5 µM
19 | Clc1ccc(CCNc2ncc(Br)c(Nc3cc(C4CC4)n[nH]3)n2)cc1 [Example 230] | 0.5 to 5 µM | > 5 µM
20 | FC(F)(F)Oc1ccc(Nc2ncc(Br)c(Nc3cc(C4CC4)[nH]n3)n2)c(Br)c1 [Example 237] | 0.5 to 5 µM | > 5 µM
21 | CN(C)c1ccc(Nc2nccc(Nc3cc(C4CC4)n[nH]3)n2)cc1 [Example 238] | 0.5 to 5 µM | 0.5 to 5 µM
22 | O=C(NCc1ccccc1)c1nc(Nc2ccccc2Cl)nc(Nc2cc(C3CC3)n[nH]2)c1[N+](=O)[O-] [Example 239] | 0.5 to 5 µM | 0.5 to 5 µM
23 | Clc1ccc(CCNc2ncc(Br)c(Nc3cc(C4CC4)n[nH]3)n2)c(Cl)c1 [Example 240] | 0.5 to 5 µM | > 5 µM
24 | Fc1c(Cl)cccc1Nc1ncc(Br)c(Nc2cc(C3CC3)n[nH]2)n1 [Example 241] | 0.5 to 5 µM | 0.5 to 5 µM
25 | c1ccc(CN2CCc3c(nc(NCc4cc(-c5ccccc5)no4)nc3Nc3cc(C4CC4)[nH]n3)C2)cc1 [Example 242] | 0.5 to 5 µM | 0.5 to 5 µM
26 | Cc1cc(Nc2cc(-c3ccco3)[nH]n2)nc(NCc2cc(-c3ccccc3)no2)n1 [Example 246] | 0.5 to 5 µM | 0.5 to 5 µM

Row | SMILES | IC50 (IGF 3P) | IC50 [1]
27 | COc1ccc(CNc2ncc(Br)c(Nc3cc(C4CC4)n[nH]3)n2)cc1OC [Example 247] | 0.5 to 5 µM | > 5 µM
28 | CN1CCN(c2ncc(Br)c(Nc3cc(C4CC4)[nH]n3)n2)CC1 [Example 249] | 0.5 to 5 µM | > 5 µM
29 | Cc1cc(Nc2cc(C3CC3)[nH]n2)nc(NCc2nc(-c3ccccc3)cs2)n1 [Example 252] | 0.5 to 5 µM | 0.5 to 5 µM
30 | CN(C)CCCNc1ncc(Br)c(Nc2cc(C3CC3)n[nH]2)n1 [Example 254] | 0.5 to 5 µM | > 5 µM
31 | Brc1cnc(Nc2ccc(N3CCNCC3)cc2)nc1Nc1cc(C2CC2)n[nH]1 [Example 255] | 0.5 to 5 µM | > 5 µM
32 | COc1cc(Nc2ncc(Br)c(Nc3cc(C4CC4)n[nH]3)n2)cc(C(F)(F)F)c1 [Example 258] | > 5 µM | > 5 µM
33 | Cc1cc(Nc2cc(C3CC3)n[nH]2)nc(Nc2cc(F)cc(F)c2)n1 [Example 259] | > 5 µM | 0.5 to 5 µM
34 | Brc1cnc(Nc2ccccc2N2CCOCC2)nc1Nc1cc(C2CC2)n[nH]1 [Example 260] | > 5 µM | > 5 µM
35 | COc1cc(Nc2nc(C)cc(Nc3cc(C4CC4)[nH]n3)n2)cc(OC)c1 [Example 261] | > 5 µM | 0.5 to 5 µM
36 | FC(F)(F)c1cccc(CNc2ncc(Br)c(Nc3cc(C4CC4)n[nH]3)n2)c1 [Example 263] | > 5 µM | 0.5 to 5 µM
37 | FC(F)(F)Oc1cccc(Nc2ncc(Br)c(Nc3cc(C4CC4)n[nH]3)n2)c1 [Example 264] | > 5 µM | > 5 µM
38 | Brc1cnc(NCc2cnn(-c3ccccc3)n2)nc1Nc1cc(C2CC2)n[nH]1 [Example 266] | > 5 µM | 0.5 to 5 µM
39 | Clc1ccccc1Nc1ncc(Br)c(Nc2n[nH]c3ccccc23)n1 [Example 267] | > 5 µM | > 5 µM
40 | Cc1cc(Nc2cc(C3CC3)n[nH]2)nc(Nc2ccc(N3CCOCC3)cc2)n1 [Example 268] | > 5 µM | > 5 µM
41 | Brc1cnc(Nc2cccc(OCc3ccccc3)c2)nc1Nc1cc(C2CC2)n[nH]1 [Example 269] | > 5 µM | > 5 µM
42 | Cc1cc(C)cc(Nc2nc(C)cc(Nc3cc(C4CC4)n[nH]3)n2)c1 [Example 270] | > 5 µM | 0.5 to 5 µM
43 | Brc1cnc(NCc2cc(-c3ccccc3)cs2)nc1Nc1cc(C2CC2)n[nH]1 [Example 271] | > 5 µM | > 5 µM
44 | Clc1ccccc1CCNc1ncc(Br)c(Nc2cc(C3CC3)n[nH]2)n1 [Example 272] | > 5 µM | > 5 µM
45 | Cc1cc(Nc2cc(C3CC3)n[nH]2)nc(Nc2cc(Cl)cc(Cl)c2)n1 [Example 274] | > 5 µM | 0.5 to 5 µM
46 | Clc1ccc(-c2cc(CNc3ncc(Br)c(Nc4cc(C5CC5)[nH]n4)n3)on2)cc1 [Example 275] | > 5 µM | 0.5 to 5 µM
47 | O=C(Nc1ccccc1)c1nc(Nc2ccccc2Cl)nc(Nc2cc(C3CC3)n[nH]2)c1[N+](=O)[O-] [Example 276] | > 5 µM | 0.5 to 5 µM
48 | COc1ccc(-c2cc(CNc3ncc(Br)c(Nc4cc(C5CC5)[nH]n4)n3)on2)cc1 [Example 277] | > 5 µM | > 5 µM
49 | O=C(Nc1ccc(N2CCOCC2)cc1)c1nc(Nc2ccccc2Cl)nc(Nc2cc(C3CC3)n[nH]2)c1[N+](=O)[O-] [Example 278] | > 5 µM | > 5 µM
50 | O=C(Nc1ncc(Br)c(Nc2cc(C3CC3)[nH]n2)n1)c1ccccc1Cl [Example 279] | > 5 µM | > 5 µM
51 | CC(=O)Nc1cnc(Nc2ccccc2Cl)nc1Nc1cc(C2CC2)n[nH]1 [Example 280] | > 5 µM | > 5 µM
